Test results from paper PMC4552634, “A New Set of Chemical Starting Points with Plasmodium falciparum Transmission-Blocking Potential for Antimalarial Drug Discovery” (PLoS ONE, 2015).
Like-named read-outs stand apart in the source and are kept apart here.

Tests used:
[1] = system: P. falciparum stage V gametocytes; assay: Gametocytocidal ATP bioluminescence assay (single point 5 μM and 1 μM, dose-response); type: cell-based, Plasmodium falciparum; conditions: for IC90: ATP assay, Fig 7, read-out: IC90 against gametocytes; for Ratio IC50 HepG2/IC50 P. falciparum: IC50 HepG2 divided by IC50 P. falciparum gametocytes
Description: Purified stage IV-V gametocytes were obtained as previously described [10]. Single point ATP bioluminescence assay and dose–response of positive hits was determined in accordance with the previously published protocol [10].

[2] = Cytotoxicity in HepG2 cells (intracellular ATP, ATPlite, 48 h); type: cell-based, human; conditions: human, HepG2 cells
[3] = system: mature P. falciparum NF54 gametocytes (male gametocyte exflagellation); assay: Exflagellation assay; type: cell-based, Plasmodium falciparum; conditions: for % Exflagellation inh. at the IC90: 48 h, concentration = IC90, Fig 7; for % Inhibition exflagellation: 48 h post-treatment at the IC90 of the ATP assay, normalized to control, Fig 6
Description: The exflagellation assay was performed as described by Delves et al., with some modifications. Briefly, 200 μL samples of mature P. falciparum NF54 gametocytes culture in the presence of the corresponding test compound were incubated at 37°C for 48 h in an atmosphere of 5% CO2, 5% O2, 90% N2 in 1.5 mL microfuge tubes. After the incubation period, cells were settled down and medium was carefully removed. The cell pellets were resuspended in 15 μl of complete ookinete medium (RPMI medium with 25 mM HEPES, 50 mg/L hypoxanthine, 2 g/L sodium bicarbonate, 100 μM xanthurenic acid, 20% human serum) pre-warmed at 37°C. Once parasites were resuspended in ookinete medium, they were introduced in a chamber of a FastRead disposable hemocytometer slide and placed on a horizontal surface at room temperature (21°C), to allow cells to homogeneously settle, forming a tight monolayer.

[4] = system: P. falciparum NF54 gametocytes fed to An. stephensi mosquitoes; assay: Standard membrane feeding assay (SMFA); type: in vivo, Plasmodium falciparum; conditions: for Infection Prevalence (%): An. stephensi fed gametocytes treated 48 h at the IC90, Fig 6, one of two independent experiments, control 94%; for % Prevalence of infection / % Reduction oocysts SMFA / Block in Transmission (%) / Reduction in Oocyst (%): gametocytes treated 48 h at the IC90; for % Prevalence of infection / % Reduction oocysts SMFA: Fig 7; for Block in Transmission (%) / Reduction in Oocyst (%): normalized to DMSO control, Fig 6; for Reduction in Oocyst (%): mean oocyst intensity
Description: Gametocyte cultures of the P. falciparum NF54 strain, kindly provided by Robert Sinden (Imperial College London), were induced at 0.5% asexual parasitemia and 4% hematocrit (RBCs from the Spanish Red Cross) at 40 mL final volume in T75 flasks. Gametocyte production media comprised RPMI 1640 (Sigma, #R5886), 30 mM bicarbonate (Sigma-Aldrich, #S5761) and 5 mM hypoxanthine (Gibco, #11067–030). Media were made complete with 5% human serum A^+ (Interstate Blood Bank, USA) and 5% AlbuMAX II (Gibco, #11021–037). Cultures were maintained in a gassed incubator at 37°C with 5% CO2, 5% O2, 90% N2 for 14–17 days post-induction, with daily medium replacement without the addition of fresh RBCs. Percentages of mature gametocytes were assessed by microscopic counts (Leica, DM2000) of Giemsa-stained thin blood smears, and functional microgametocytes were assessed for exflagellation activity at room temperature. To test exflagellation, mature gametocyte cultures were centrifuged at 1800 rpm for one minute. The infected RBC pellet was gently mixed with an equal volume of pre-warmed human serum and introduced onto a slide with a coverslip, followed by incubation at room temperature for 10–15 min. The average exflagellation centers per field at 10X magnification was determined by the exflagellation assay described above. Gametocyte counts and exflagellation assays were performed both before and after gametocyte drug treatment (at the time of SMFA).
Two days before gametocyte treatment with compound, spent media was removed and fresh Gametocyte Treatment Medium consisting of RPMI1640 with L-glutamine and 25 mM HEPES (Gibco, #13018–031), 10 mM glucose (Sigma-Aldrich, #G8270), 20 mM bicarbonate (Sigma-Aldrich, #S5761) and 5 mM hypoxanthine (Gibco, #11067) was added. Media were made complete with 10% of human A^+ serum (Interstate Blood Bank). Five ml of mature gametocyte culture at day 15 post-induction was transferred into each well of a pre-warmed 6-well plate. The selected TCAMS compounds were prepared fresh as a stock solution of 10 mM in 100% of DMSO and added to the mature gametocytes at the concentrations described in Fig 7. Gametocytes were exposed to the compound for a total duration of 48 h. At 24 h post-drug exposure, a fixed volume (3 mL) of spent medium was removed and fresh medium was re-added, accompanied by compound replenishment to obtain the required final concentration. Untreated gametocytes with the same final concentration of DMSO (0.1%) as in treated gametocytes were processed in parallel.
On the day of the feed, cultures were centrifuged at 2500 g for 3 min at 37°C, diluted 1:1 with 100% packed cell volume of fresh RBCs, and finally formulated as artificial mosquito blood meals at 50% hematocrit with pre-warmed human serum. All steps were performed at 37°C. Prepared blood meals were fed in duplicate to 4–6 days old female An. stephensi mosquitoes for 30–40 min via Parafilm membrane attached to glass feeders (Fisher Scientific, #12831283) connected to a 37°C circulating water bath. Fed mosquitoes were maintained in an incubator at 27°C and 75% relative humidity with 12 h light/dark cycles. At 7–8 days post-feeding, mosquitoes with fully developed ovaries were dissected for midguts (Leica, M80) and incubated in 0.2% mercurochrome solution in distilled water for 10–15 min. The total number of oocysts in individual midguts was counted using a light microscope (Leica, DM2000) under a 10X objective (100X magnification). Both infection prevalence (percentage of mosquitoes with one or more oocysts) and mean oocyst intensity of infection were defined in each treatment. The percentage block in transmission and the percentage reduction in mean oocyst intensity were calculated after normalizing to the Control DMSO-treated sample.

[5] = system: P. falciparum asexual stages; conditions: TCAMS data, cited from earlier work
[6] = system: luciferase reaction (BacTiter-Glo); assay: Interference assay (inhibition of the BacTiter-Glo luciferase reaction); type: biochemical; set-up: concentration or dose not given beside the values; conditions: ATP interference assay
Description: To discard possible false-positive results, we performed an interference assay in parallel. […] […]. The ATP solution was made by dissolving ATP powder (ATP standard from the ATPlite 1 step assay kit, reference 6016731, Perkin Elmer) in culture medium. The positive control used was the Luciferase Inhibitor I Calbiochem (Merck, 119113) at 100 μM.

[7] = system: HepG2 cells; assay: Cytotoxicity in HepG2 cells (intracellular ATP, ATPlite, 48 h); type: cell-based, human; conditions: IC50 HepG2 divided by IC50 P. falciparum gametocytes
[8] = system: P. falciparum stage V gametocytes; assay: microbe, parasite or virus in culture; set-up: BacTiter-Glo ATP luminescence viability of purified stage V gametocytes in 384-well plates, per cent inhibition versus DMSO; conditions: Plasmodium falciparum, 48 h, read-out: % Inhibition
[9] = Plasmodium falciparum, P. falciparum gametocytes, average, read-out: IC50 Pf Gametocytes average, IC50 (µM) average
[10] = IC50 per ratio column head, unit inferred, read-out: Cytotoxicity in HepG2
[11] = P. falciparum asexual stages, read-out: IC50 (µM) Pf asexual stages
[12] = asexual stages, read-out: IC50 asexual
[13] = HepG2, 48 h exposure, intracellular ATP, read-out: IC50 (μM) Cytotoxicity HepG2
[14] = sexual stages (gametocytes), dose-response, read-out: IC50 sexual

SMILES	IC90 ([1]; Plasmodium falciparum) [nM]	IC50 [1, 9] [µM]	IC50 at 48 h [2, 10] [µM]	% Exflagellation inh. at the IC90 [3] [%]	% Inhibition exflagellation [3] [%]	Infection Prevalence (%) [4] [%]	% Prevalence of infection [4] [%]	% Reduction oocysts SMFA [4] [%]	Block in Transmission (%) [4] [%]	Reduction in Oocyst (%) [4] [%]	IC50 [5, 11] [µM]	IC50 [5, 12] [µM]	Ratio IC50 HepG2/IC50 P. falciparum [1]	% Control luminiscence [6] [%]	Ratio IC50 HepG2/IC50 P. falciparum [7]	IC50 at 48 h [2, 13] [µM]	IC50 [1, 14] [µM]	IC50 ([1]; Plasmodium falciparum, sexual stages (gametocytes), dose-response, read-out: IC50 sexual) [µM]	inhibition at 5 µM [8] [%]
CNC(=S)NN=C(C)c1ccccn1 [TCMDC-123475]	10000	1.17	> 25	97.7	97.7	0	0	100	100	100	0.27	0.272	–	–	–	–	–	–	–
Cc1c(Cl)cccc1NC(=S)NN=Cc1ccccn1 [TCMDC-125487]	2000	0.27	> 25	98.3	98.30	0	1	100	100	100	0.6	0.603	–	–	–	–	–	–	–
COc1cc2nc(N3CCC(CCCC4CCNCC4)CC3)nc(NCc3ccccn3)c2cc1OC [TCMDC-138494]	–	0.4	10.6	–	–	–	–	–	–	–	–	0.757	26	100	26	–	–	–	–
COc1cc2nc(NCC3CCN(c4nc(N)c5cc(OC)c(OC)cc5n4)CC3)nc(N)c2cc1OC [TCMDC-138723]	–	1.42	> 25	–	–	–	–	–	–	–	–	0.776	>18	98	>18	–	–	–	–
COc1ccc(COc2cc(NCCCN)nc3ccccc23)cc1 [TCMDC-139286]	–	0.56	14	–	–	–	–	–	–	–	1.28	1.28	25	100	25	14	–	–	–
c1cc(Nc2nc(-c3ccc(-c4csc(Nc5ccncc5)n4)cc3)cs2)ccn1 [TCMDC-139725]	–	0.26	17.3	–	–	–	–	–	–	–	–	0.117	67	93	67	–	–	–	–
CCCCCCCN1CC[C@@H](CCCc2ccnc3ccc(OCCCCNC(N)=NO)cc23)[C@@H](CC)C1 [TCMDC-139839]	–	0.47	17.2	–	–	–	–	–	–	–	–	0.952	36	100	36	–	0.473	–	–
CC(C)CNCc1cccc(-c2ccc(CN(CCCN3CCN(C)CC3)C(=O)CCC3CCCC3)cc2)c1 [TCMDC-140558]	–	0.7	> 25	–	–	–	–	–	–	–	–	0.877	>36	100	>36	–	–	–	–
CCN(CC)CCN(Cc1ccc(-c2ccc(C(F)(F)F)cc2)cc1)C(=O)Cn1cc(Cc2cnn(C)c2)c(=O)nc1/C=C/c1cccc(F)c1F [TCMDC-140964]	–	0.17	14.4	–	–	–	–	–	–	–	–	0.957	83	100	83	–	0.173	–	–
CN(C)CCCNc1nccc(N(C)c2ccc(NC(=O)Nc3cc(C(F)(F)F)ccc3F)cc2)n1 [TCMDC-141633]	–	1	17.3	–	–	–	–	–	–	–	–	0.98	17	100	17	–	0.997	–	–
O=c1c(Br)ccccc1Br [TCMDC-142246]	–	0.21	12.6	–	–	–	–	–	–	–	0.79	0.795	61	100	61	13	–	0.207	103
